Source: US9399626B2, “2-thiopyrimidinones” (Pfizer Inc., priority 2011, dated 2016)

Target: T1, MPO (purified from human polynuclear leukocytes) (Homo sapiens, UniProt P05164)
T1 construct: purified from human polynuclear leukocytes; purchased Calbiochem/EMD Biosciences; host or cells: human polynuclear leukocytes (natural source)
Experiment: MPO Amplex Red Activity Assay
Format: biochemical
Method in brief: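 Human leukocyte MPO […] oxidises 30 μM Amplex Red with 2 μM H2O2 in 50 mM NaPi pH 7.4, 150 mM NaCl, 1 mM DTPA, 2% DMSO. Resorufin fluorescence (ex 530/em 580 nm) read every 20 s, minus catalase background. kobs from the first 600 s, corrected for auto-inactivation, fit versus [I] for kinact/KI.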

T1 sequence (P05164 279-745 limits assumed): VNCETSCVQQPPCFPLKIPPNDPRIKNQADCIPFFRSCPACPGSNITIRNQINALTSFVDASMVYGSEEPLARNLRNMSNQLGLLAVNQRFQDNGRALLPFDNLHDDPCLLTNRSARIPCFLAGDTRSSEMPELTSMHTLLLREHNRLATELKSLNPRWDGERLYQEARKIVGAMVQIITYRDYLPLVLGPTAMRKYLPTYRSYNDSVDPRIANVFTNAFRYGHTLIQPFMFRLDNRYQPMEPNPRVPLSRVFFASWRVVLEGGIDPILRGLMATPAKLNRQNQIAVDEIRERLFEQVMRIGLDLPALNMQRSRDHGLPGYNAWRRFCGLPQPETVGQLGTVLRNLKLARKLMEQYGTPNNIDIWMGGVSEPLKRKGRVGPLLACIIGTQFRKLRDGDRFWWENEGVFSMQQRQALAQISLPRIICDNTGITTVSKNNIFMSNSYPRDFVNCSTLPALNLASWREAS
T1 sequence (P05164 165-273 limits assumed): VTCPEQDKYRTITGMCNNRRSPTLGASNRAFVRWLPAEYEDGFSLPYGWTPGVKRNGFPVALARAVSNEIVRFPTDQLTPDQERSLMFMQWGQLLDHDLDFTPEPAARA

| MPO kinact/Ki (Table 1, 2 μM H2O2, pH 7.4) | MPO kinact/Ki (Table 1A, 2 μM H2O2, pH 7.4) | Compound |
| --- | --- | --- |
| 1400 1/s per M | – | COCCn1c(-c2cccc(S(=O)(=O)N(C)C)c2)cc(=O)[nH]c1=S [Example 348, 3-[3-(2-methoxyethyl)-6-oxo-2-thioxo-1,2,3,6-tetrahydropyrimidin-4-yl]-N,N-dimethylbenzenesulfonamide] |
| – | 3630 1/s per M | NC(=O)Cn1c(-c2ccccc2OCCO)cc(=O)[nH]c1=S [Example 349, 2-(6-(2-(2-Hydroxyethoxy)phenyl)-4-oxo-2-thioxo-3,4-dihydropyrimidin-1(2H)-yl)acetamide] |
| – | 8740 1/s per M | COC(=O)/N=C(/N)NCCCn1c(-c2cc(Cl)ccc2OC)cc(=O)[nH]c1=S [Example 350, Methyl[amino({3-[6-(5-chloro-2-methoxyphenyl)-4-oxo-2-thioxo-3,4-dihydropyrimidin-1(2H)-yl]propyl}amino)methylidene]carbamate] |
| – | 7870 1/s per M | COc1ccc(F)cc1-c1cc(=O)[nH]c(=S)n1CCCNC(=N)N1CC(F)(F)C1 [Example 351, 3,3-Difluoro-N-{3-[6-(5-fluoro-2-methoxyphenyl)-4-oxo-2-thioxo-3,4-dihydropyrimidin-1(2H)-yl]propyl}azetidine-1-carboximidamide] |
| – | 6720 1/s per M | COc1ccc(OC)c(-c2cc(=O)[nH]c(=S)n2CCNC(=O)CN)c1 [Example 352, N-{2-[6-(2,5-dimethoxyphenyl)-4-oxo-2-thioxo-3,4-dihydropyrimidin-1(2H)-yl]ethyl}glycinamide] |
| – | 11000 1/s per M | COc1ccc(Cl)cc1-c1cc(=O)[nH]c(=S)n1CCCNS(C)(=O)=O [Example 353, N-{3-[6-(5-chloro-2-methoxyphenyl)-4-oxo-2-thioxo-3,4-dihydropyrimidin-1(2H)-yl]propyl}methanesulfonamide] |
| – | 1830 1/s per M | NCCn1c(-c2cc3ccccc3s2)cc(=O)[nH]c1=S [Example 354, 1-(2-aminoethyl)-6-(1-benzothiophen-2-yl)-2-thioxo-2,3-dihydropyrimidin-4(1H)-one] |
| – | 1540 1/s per M | COc1ccc(-c2cc(=O)[nH]c(=S)n2CCO)cc1OC [Example 355, 6-(3,4-dimethoxyphenyl)-1-(2-hydroxyethyl)-2-thioxo-2,3-dihydropyrimidin-4(1H)-one] |
| – | 2910 1/s per M | O=c1cc(-c2ccc3c(c2)OCCO3)n(CCO)c(=S)[nH]1 [Example 356, 6-(2,3-dihydro-1,4-benzodioxin-6-yl)-1-(2-hydroxyethyl)-2-thioxo-2,3-dihydropyrimidin-4(1H)-one] |
| – | 2940 1/s per M | NCCn1c(-c2ccc3c(c2)OCCO3)cc(=O)[nH]c1=S [Example 357, 1-(2-aminoethyl)-6-(2,3-dihydro-1,4-benzodioxin-6-yl)-2-thioxo-2,3-dihydropyrimidin-4(1H)-one] |
| – | 1710 1/s per M | NC(=O)Cn1c(-c2ccc3c(c2)OCCO3)cc(=O)[nH]c1=S [Example 358, 2-[6-(2,3-dihydro-1,4-benzodioxin-6-yl)-4-oxo-2-thioxo-3,4-dihydropyrimidin-1(2H)-yl]acetamide] |
| – | 2660 1/s per M | COc1ccc(Cl)cc1-c1cc(=O)[nH]c(=S)n1C[C@H](O)CO [Example 359, 6-(5-chloro-2-methoxyphenyl)-1-[(2S)-2,3-dihydroxypropyl]-2-thioxo-2,3-dihydropyrimidin-4(1H)-one] |
| – | 2280 1/s per M | COc1ccc(-c2cc(=O)[nH]c(=S)n2CCN)cc1OC [Example 360, 1-(2-aminoethyl)-6-(3,4-dimethoxyphenyl)-2-thioxo-2,3-dihydropyrimidin-4(1H)-one] |
| – | 2060 1/s per M | COc1ccc(Cl)cc1-c1cc(=O)[nH]c(=S)n1C[C@H](C)N [Example 361, 1-[(2S)-2-aminopropyl]-6-(5-chloro-2-methoxyphenyl)-2-thioxo-2,3-dihydropyrimidin-4(1H)-one] |
| – | 2690 1/s per M | NCCn1c(-c2cccc3ncsc23)cc(=O)[nH]c1=S [Example 362, 1-(2-aminoethyl)-6-(1,3-benzothiazol-7-yl)-2-thioxo-2,3-dihydropyrimidin-4(1H)-one] |
